Literature values, collected in US7662811B2, “1,2,3,4-tetrahydropyrazin-2-yl acetamides and methods of use” (Amgen Inc., priority 2004, dated 2010).
No end group written: not given here.

## RPPGFSPFR [BK]
  half-life of BK in plasma: approximately 17 seconds
